Experimental data from publication PMC10600239, “Selective MCL-1 inhibitor ABBV-467 is efficacious in tumor models but is associated with cardiac troponin increases in patients” (Communications Medicine, 2023).

Legend:
Test in all cases: Off-target profiling (Supplementary Data 1)
[1] = biological target: off-target receptors, ion channels, and transporters (Homo sapiens, UniProt P43403); conditions: TR-FRET Kinome; SignalChem A-1167389.7 .015(Subs Conc)
[2] = biological target: off-target receptors, ion channels, and transporters (Homo sapiens, UniProt Q12851); conditions: TR-FRET Kinome; Invitrogen A-1169612.6 .04(Subs Conc)
[3] = biological target: off-target receptors, ion channels, and transporters (Homo sapiens, UniProt P17948); conditions: TR-FRET Kinome; Invitrogen A-1167389.7 .0125(Subs Conc)
[4] = biological target: off-target receptors, ion channels, and transporters (Homo sapiens, UniProt Q06187); conditions: TR-FRET Kinome; Invitrogen A-1167389.7 .2(Subs Conc)
[5] = biological target: off-target receptors, ion channels, and transporters (Homo sapiens, UniProt P00533); conditions: TR-FRET Kinome; Invitrogen A-1224127.6 .1(Subs Conc)
[6] = biological target: off-target receptors, ion channels, and transporters (Homo sapiens, UniProt Q9UKP6); conditions: CEREP
[7] = biological target: off-target receptors, ion channels, and transporters (Homo sapiens, UniProt P49841); conditions: TR-FRET Kinome; Invitrogen A-1169612.6 .006(Subs Conc)
[8] = biological target: off-target receptors, ion channels, and transporters (Homo sapiens, UniProt O43293); conditions: TR-FRET Kinome; Invitrogen A-1180691.2 .1(Subs Conc)
[9] = biological target: off-target receptors, ion channels, and transporters (Homo sapiens, UniProt P30291); conditions: TR-FRET Kinome; Carna Biosciences A-1248830.7 .015(Subs Conc)
[10] = biological target: off-target receptors, ion channels, and transporters (Homo sapiens, UniProt O60674); conditions: TR-FRET Kinome; Invitrogen A-1167389.7 .006(Subs Conc)
[11] = biological target: off-target receptors, ion channels, and transporters (Homo sapiens, UniProt P24941); conditions: TR-FRET Kinome; Invitrogen A-1233106.2 .025(Subs Conc)
[12] = biological target: off-target receptors, ion channels, and transporters (Homo sapiens, UniProt Q96RR4); conditions: TR-FRET Kinome; Invitrogen A-1167389.7 .005(Subs Conc)
[13] = biological target: off-target receptors, ion channels, and transporters (Homo sapiens, UniProt P25101)
[14] = biological target: off-target receptors, ion channels, and transporters (Homo sapiens, UniProt P07949); conditions: TR-FRET Kinome; Invitrogen A-1180691.2 .1(Subs Conc)
[15] = biological target: off-target receptors, ion channels, and transporters (Homo sapiens, UniProt Q02750); conditions: TR-FRET Kinome; Invitrogen A-1169612.6 .025(Subs Conc)
[16] = biological target: off-target receptors, ion channels, and transporters (Homo sapiens, UniProt Q13627); conditions: TR-FRET Kinome; Invitrogen A-1180691.2 .0125(Subs Conc)
[17] = biological target: off-target receptors, ion channels, and transporters (Homo sapiens, UniProt P08908)
[18] = biological target: off-target receptors, ion channels, and transporters (Homo sapiens, UniProt Q16539); conditions: TR-FRET Kinome; Invitrogen IVGN Tracer 199 .05(Subs Conc)
[19] = biological target: off-target receptors, ion channels, and transporters (Homo sapiens, UniProt P08913)
[20] = biological target: off-target receptors, ion channels, and transporters (Homo sapiens, UniProt Q8IU85); conditions: TR-FRET Kinome; Invitrogen A-1167389.7 .025(Subs Conc)
[21] = biological target: off-target receptors, ion channels, and transporters (Homo sapiens, UniProt P24530)
[22] = biological target: off-target receptors, ion channels, and transporters (Homo sapiens, UniProt P08069); conditions: TR-FRET Kinome; Invitrogen A-1198909.2 .2(Subs Conc)
[23] = biological target: off-target receptors, ion channels, and transporters (Homo sapiens, UniProt P41595)
[24] = biological target: off-target receptors, ion channels, and transporters (Homo sapiens, UniProt Q07912); conditions: TR-FRET Kinome; Invitrogen A-1169612.6 .025(Subs Conc)
[25] = biological target: off-target receptors, ion channels, and transporters (Homo sapiens, UniProt P09619); conditions: TR-FRET Kinome; Invitrogen A-1169612.6 .025(Subs Conc)

off-target receptors, ion channels, and transporters (Homo sapiens, UniProt P41595), sequence (P41595 whole entry): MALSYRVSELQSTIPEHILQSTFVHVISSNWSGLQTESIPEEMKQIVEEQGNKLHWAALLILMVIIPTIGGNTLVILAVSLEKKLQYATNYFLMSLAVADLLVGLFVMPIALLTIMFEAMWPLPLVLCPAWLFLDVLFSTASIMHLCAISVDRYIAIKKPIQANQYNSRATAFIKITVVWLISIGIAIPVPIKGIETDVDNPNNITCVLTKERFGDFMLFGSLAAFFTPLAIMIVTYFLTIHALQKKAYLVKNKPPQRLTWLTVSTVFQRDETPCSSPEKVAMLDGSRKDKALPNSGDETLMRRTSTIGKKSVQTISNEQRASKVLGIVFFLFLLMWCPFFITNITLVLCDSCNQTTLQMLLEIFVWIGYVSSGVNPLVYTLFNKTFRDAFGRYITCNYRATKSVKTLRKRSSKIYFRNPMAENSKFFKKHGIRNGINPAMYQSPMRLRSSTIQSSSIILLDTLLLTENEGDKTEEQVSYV
off-target receptors, ion channels, and transporters (Homo sapiens, UniProt P24530), sequence (P24530 27-442): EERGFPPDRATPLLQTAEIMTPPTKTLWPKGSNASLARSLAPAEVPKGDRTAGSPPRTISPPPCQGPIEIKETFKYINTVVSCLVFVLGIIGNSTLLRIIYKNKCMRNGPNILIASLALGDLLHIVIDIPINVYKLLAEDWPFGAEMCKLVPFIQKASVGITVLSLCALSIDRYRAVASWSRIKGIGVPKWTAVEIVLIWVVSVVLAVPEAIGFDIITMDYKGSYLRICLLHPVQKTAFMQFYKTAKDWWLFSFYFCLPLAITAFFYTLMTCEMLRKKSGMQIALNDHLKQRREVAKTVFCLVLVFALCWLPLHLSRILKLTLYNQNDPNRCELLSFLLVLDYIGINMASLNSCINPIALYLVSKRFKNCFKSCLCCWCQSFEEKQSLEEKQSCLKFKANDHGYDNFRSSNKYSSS
off-target receptors, ion channels, and transporters (Homo sapiens, UniProt Q9UKP6), sequence (Q9UKP6 whole entry): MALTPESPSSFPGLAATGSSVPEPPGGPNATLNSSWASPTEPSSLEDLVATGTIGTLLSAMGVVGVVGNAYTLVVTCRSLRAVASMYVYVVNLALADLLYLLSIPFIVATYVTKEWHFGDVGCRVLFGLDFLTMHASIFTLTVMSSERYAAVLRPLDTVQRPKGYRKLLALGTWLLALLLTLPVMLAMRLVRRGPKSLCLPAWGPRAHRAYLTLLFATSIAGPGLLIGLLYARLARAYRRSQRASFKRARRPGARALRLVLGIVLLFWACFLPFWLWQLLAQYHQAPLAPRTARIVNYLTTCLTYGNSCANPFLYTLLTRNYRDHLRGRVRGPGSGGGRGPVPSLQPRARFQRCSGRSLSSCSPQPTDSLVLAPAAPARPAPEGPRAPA
off-target receptors, ion channels, and transporters (Homo sapiens, UniProt P25101), sequence (P25101 21-427): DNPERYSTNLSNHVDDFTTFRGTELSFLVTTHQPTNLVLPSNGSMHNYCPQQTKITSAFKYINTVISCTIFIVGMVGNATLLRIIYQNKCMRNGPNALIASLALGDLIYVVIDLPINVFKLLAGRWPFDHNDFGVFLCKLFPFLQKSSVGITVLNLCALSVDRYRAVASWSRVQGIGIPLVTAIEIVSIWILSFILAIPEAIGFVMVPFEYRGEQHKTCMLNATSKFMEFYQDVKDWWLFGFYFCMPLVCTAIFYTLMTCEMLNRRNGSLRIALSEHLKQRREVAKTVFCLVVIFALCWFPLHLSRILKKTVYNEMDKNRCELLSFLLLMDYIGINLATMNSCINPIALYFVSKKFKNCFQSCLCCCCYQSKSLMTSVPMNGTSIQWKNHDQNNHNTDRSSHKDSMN
off-target receptors, ion channels, and transporters (Homo sapiens, UniProt P08913), sequence (P08913 whole entry): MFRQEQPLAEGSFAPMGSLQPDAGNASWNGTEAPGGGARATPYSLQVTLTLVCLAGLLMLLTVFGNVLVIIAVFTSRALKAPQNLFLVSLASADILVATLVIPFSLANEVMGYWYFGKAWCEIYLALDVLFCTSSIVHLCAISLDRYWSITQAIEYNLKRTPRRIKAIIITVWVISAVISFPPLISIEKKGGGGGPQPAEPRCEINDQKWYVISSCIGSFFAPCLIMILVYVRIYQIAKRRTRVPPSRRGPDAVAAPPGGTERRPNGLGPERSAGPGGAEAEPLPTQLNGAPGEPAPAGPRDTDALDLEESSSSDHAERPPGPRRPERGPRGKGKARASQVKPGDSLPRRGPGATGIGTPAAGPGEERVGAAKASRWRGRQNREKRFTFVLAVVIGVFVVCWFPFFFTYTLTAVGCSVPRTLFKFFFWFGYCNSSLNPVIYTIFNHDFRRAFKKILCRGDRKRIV
off-target receptors, ion channels, and transporters (Homo sapiens, UniProt P08908), sequence (P08908 whole entry): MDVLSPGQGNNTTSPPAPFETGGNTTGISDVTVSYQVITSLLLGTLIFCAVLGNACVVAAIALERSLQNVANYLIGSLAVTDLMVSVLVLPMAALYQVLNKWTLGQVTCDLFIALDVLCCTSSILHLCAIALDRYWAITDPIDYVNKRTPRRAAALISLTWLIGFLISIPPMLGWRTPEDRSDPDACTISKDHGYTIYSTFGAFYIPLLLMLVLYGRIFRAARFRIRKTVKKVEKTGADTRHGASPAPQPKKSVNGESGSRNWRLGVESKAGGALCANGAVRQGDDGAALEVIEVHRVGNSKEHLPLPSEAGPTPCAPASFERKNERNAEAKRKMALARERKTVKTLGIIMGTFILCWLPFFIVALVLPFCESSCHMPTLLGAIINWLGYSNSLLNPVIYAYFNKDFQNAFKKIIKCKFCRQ
off-target receptors, ion channels, and transporters (Homo sapiens, UniProt P08069), sequence (P08069 31-1367): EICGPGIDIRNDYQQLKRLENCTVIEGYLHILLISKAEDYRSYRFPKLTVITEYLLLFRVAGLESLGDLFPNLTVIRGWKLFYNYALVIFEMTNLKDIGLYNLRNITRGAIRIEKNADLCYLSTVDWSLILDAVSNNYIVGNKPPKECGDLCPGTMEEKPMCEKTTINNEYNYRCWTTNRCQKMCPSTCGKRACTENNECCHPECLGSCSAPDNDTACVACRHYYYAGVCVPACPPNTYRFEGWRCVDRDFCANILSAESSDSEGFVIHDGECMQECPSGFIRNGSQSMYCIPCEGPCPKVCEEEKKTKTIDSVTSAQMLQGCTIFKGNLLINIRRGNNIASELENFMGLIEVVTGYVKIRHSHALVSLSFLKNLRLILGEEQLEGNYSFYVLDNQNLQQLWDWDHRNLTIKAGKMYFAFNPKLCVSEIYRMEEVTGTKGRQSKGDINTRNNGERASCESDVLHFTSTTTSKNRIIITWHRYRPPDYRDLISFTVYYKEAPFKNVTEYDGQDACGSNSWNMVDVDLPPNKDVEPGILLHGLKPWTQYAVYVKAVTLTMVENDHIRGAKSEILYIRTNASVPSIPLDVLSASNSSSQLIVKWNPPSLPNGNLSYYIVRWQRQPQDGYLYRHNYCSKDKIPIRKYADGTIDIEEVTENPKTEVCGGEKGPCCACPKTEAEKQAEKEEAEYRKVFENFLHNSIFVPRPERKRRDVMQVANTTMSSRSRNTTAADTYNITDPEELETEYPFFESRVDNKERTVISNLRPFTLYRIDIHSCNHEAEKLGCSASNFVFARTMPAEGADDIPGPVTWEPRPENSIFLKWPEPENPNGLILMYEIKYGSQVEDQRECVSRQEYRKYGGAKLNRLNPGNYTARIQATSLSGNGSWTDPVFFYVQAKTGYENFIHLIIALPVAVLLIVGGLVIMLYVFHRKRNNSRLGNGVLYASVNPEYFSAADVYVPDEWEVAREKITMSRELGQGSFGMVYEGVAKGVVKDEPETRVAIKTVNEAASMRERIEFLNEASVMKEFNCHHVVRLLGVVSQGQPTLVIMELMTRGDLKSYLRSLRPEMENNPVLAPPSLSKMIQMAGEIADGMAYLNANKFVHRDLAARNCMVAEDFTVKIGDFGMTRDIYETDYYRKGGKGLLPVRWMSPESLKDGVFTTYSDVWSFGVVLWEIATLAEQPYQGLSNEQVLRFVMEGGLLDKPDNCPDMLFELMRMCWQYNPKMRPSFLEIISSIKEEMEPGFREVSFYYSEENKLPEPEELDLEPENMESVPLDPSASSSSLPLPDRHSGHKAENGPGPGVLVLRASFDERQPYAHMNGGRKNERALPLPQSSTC
off-target receptors, ion channels, and transporters (Homo sapiens, UniProt P07949), sequence (P07949 29-1114): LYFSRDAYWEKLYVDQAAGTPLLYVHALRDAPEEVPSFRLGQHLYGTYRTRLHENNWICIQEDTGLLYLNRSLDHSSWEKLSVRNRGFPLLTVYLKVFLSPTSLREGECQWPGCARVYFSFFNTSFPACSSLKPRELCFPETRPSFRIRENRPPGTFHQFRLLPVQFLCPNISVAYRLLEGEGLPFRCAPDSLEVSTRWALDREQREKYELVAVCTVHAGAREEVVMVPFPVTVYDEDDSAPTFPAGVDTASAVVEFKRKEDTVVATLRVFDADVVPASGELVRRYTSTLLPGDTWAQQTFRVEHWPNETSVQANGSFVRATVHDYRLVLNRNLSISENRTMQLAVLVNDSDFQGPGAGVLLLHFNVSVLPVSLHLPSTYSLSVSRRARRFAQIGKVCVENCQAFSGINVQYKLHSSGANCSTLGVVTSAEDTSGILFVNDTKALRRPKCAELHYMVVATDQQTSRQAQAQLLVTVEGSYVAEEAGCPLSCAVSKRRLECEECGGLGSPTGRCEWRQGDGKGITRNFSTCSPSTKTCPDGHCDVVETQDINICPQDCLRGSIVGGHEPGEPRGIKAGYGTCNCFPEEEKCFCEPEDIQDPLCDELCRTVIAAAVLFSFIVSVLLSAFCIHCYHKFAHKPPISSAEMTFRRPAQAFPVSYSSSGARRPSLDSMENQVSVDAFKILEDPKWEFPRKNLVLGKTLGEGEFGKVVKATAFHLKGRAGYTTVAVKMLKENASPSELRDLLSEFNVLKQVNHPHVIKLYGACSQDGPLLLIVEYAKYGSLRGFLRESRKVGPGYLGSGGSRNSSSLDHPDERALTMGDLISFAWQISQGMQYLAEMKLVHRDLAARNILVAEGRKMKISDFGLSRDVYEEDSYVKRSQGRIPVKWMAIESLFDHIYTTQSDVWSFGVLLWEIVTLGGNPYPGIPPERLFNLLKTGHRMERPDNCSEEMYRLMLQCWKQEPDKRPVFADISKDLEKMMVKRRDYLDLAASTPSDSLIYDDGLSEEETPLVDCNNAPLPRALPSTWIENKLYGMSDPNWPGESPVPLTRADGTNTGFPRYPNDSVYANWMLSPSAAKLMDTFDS

Cc1c(Cl)c2c(Cl)c(C)c1-c1c(-c3ccc(F)cc3)sc3ncnc(c13)O[C@@H](C(=O)O)Cc1cc(ccc1OCc1ccnc(-c3ccc(OC[C@H]4COCCO4)cc3)n1)OC[C@@H](CN1CCN(C)CC1)O2 [ABBV-467]
Zap70 - IC50 [1]: > 10 µM
MAP4K2 - IC50 [2]: > 10 µM
Flt1 - IC50 [3]: > 10 µM
BTK - IC50 [4]: > 10 µM
EGFR - IC50 [5]: > 10 µM
EC50 ([6]; read-out: Urotensin-II (UT1) Human (Functional - Agonist Effect) - EC50): > 30 µM
IC50 ([6]; read-out: Urotensin-II (UT1) Human (Functional - Antagonist Effect) - IC50): > 30 µM
Gsk3b - IC50 [7]: 9.9 µM
Zipk - IC50 [8]: > 10 µM
Wee1 - IC50 [9]: > 10 µM
JAK2 - IC50 [10]: > 10 µM
cdk2 - IC50 [11]: > 10 µM
CAMKK2 - IC50 [12]: > 10 µM
ETA CHO Human - EC50 ([13]; Bioprofiling 6pt Ag): > 10 µM
ETA CHO Human - IC50 ([13]; Bioprofiling 6pt Antag, Endothelin-1 (ET-1)): > 10 µM
RET - IC50 [14]: > 10 µM
MEK1 - IC50 [15]: > 10 µM
Dyrk1A - IC50 [16]: > 10 µM
5-HT1A CHO Human - EC50 ([17]; Bioprofiling 6pt Ag): > 10 µM
5-HT1A CHO Human - IC50 ([17]; Bioprofiling 6pt Antag, 5-Carboxytryptamine (5-CT)): > 10 µM
p38 alpha - IC50 [18]: > 10 µM
EC50 ([19]; read-out: Alpha2A CHO Human - EC50, Bioprofiling 6pt Ag): > 10 µM
IC50 ([19]; read-out: Alpha2A CHO Human - IC50, Bioprofiling 6pt Antag, UK-14304): > 10 µM
CAMK1D - IC50 [20]: > 10 µM
ETB CHO Human - EC50 ([21]; Bioprofiling 6pt Ag): > 10 µM
ETB CHO Human - IC50 ([21]; Bioprofiling 6pt Antag, BQ-3020): > 10 µM
IGF1R - IC50 [22]: > 10 µM
5-HT2B CHO Human - EC50 ([23]; Bioprofiling 6pt Ag): > 10 µM
5-HT2B CHO Human - IC50 ([23]; Bioprofiling 6pt Antag, Serotonin (5-HT)): > 10 µM
5-HT2B Human (Functional - Agonist Effect) - EC50 ([23]; CEREP): > 100 µM
5-HT2B Human (Functional - Antagonist Effect) - IC50 ([23]; CEREP): >100.00 µM
5-HT2B Human (Functional - Antagonist Effect) - Kb ([23]; CEREP): >15.30 µM
TNK2 - IC50 [24]: > 10 µM
PDGFRB - IC50 [25]: > 10 µM
